In US6525059B1, “Substituted pyrazoles as p38 kinase inhibitors” (G. D. Searle & Company, priority 1998, dated 2003) one finds melting point, inhibition in vivo and IC50 data, which are given here for 30 compounds.

The test system of one data set is TNF-α. The data set can be described thus: Rat assay: LPS-challenged rats, serum TNF-α by ELISA. It is filed as in vivo. The settings on record: Rattus norvegicus, po; for inhibition in vivo at 1 mg/kg / inhibition in vivo at 5 mg/kg: read-out: Rat LPS Assay % Inhibition. For orientation: An ELISA detects its analyte on a solid surface through an enzyme-linked reagent.

A further data set concerns human TNF. The data set can be described thus: TNF inhibition: human whole blood assay. To be noted: Homo sapiens, LPS, read-out: TNF Inhibition-Human Whole Blood Assay. It is filed as cell-based.
Data set [1] concerns the target T1, human GST-p38 kinase alpha (Homo sapiens, UniProt Q16539).
T1 construct: The coding region of the human p38a cDNA was obtained by PCR-amplification from RNA isolated from the human monocyte cell line THP.1; made in house; host or cells: E. coli DH10B
Description: p38 kinase in vitro assay, second format, phosphorylation of EGFRP with 33P-ATP. To be noted: read-out: p38α Kinase Assay IC50. It is filed as biochemical. An outline of the steps: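 Activated human GST-p38α (pre-activated with GST-MKK6, 1 h, 30 °C) phosphorylates EGFR 21-mer peptide (200 μM) with 50 μM ATP plus γ-33P-ATP, pH 7.5, 60 min at room temperature. Unreacted ATP removed by AG 1×8 resin; supernatant scintillation-counted.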

Several values for one entry are separate records, joined by “and”; a condition that tells them apart may be missing. Equal entries are not always repeated. Structures can show the parent of a compound that is named as a salt. Where two headings read alike, the source gives them in different places.

T1 sequence (Q16539 whole entry): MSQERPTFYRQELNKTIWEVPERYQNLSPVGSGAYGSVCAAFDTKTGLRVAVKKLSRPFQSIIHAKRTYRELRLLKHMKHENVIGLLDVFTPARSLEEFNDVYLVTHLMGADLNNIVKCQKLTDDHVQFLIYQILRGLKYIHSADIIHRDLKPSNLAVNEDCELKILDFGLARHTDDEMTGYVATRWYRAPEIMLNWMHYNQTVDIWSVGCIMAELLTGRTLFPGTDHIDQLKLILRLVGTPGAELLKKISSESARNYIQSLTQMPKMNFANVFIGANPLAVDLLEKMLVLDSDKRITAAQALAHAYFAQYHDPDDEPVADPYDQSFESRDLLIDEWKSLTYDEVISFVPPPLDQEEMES

For the compound `CCc1cccc(-c2[nH]nc(CC)c2-c2ccncc2)c1` [Example A-187, 4-[3-ethyl-5-(3-ethylphenyl)-1H-pyrazol-4-yl]pyridine], the melting point was 192.66 °C.
The compound `O=C(Cc1ccncc1)c1ccc(Cl)cc1` [Example A-431] showed a melting point of 95.5 to 97.3 °C.
With `Fc1ccc(-c2[nH]ncc2-c2ccncn2)cc1` [Example A-312, 4-[3-(4-fluorophenyl)-1H-pyrazol-4-yl]pyrimidine], the melting point turned out to be 191.47 °C.
As for `Cc1cccc(-c2[nH]ncc2-c2ccncn2)c1` [Example A-309, 4-[3-(3-methylphenyl)-1H-pyrazol-4-yl]pyrimidine], the melting point was determined as 151.67 °C.
The same measure, in the same setting: then `CCOC(=O)Nc1nccc(-c2cn[nH]c2-c2ccc(F)cc2)n1` [Example A-308, Ethyl [4-[3-(4-fluorophenyl)-1H-pyrazol-4-yl]-2-pyrimidinyl]carbamate], with 163 to 165 °C.
The same measure, in the same setting: then `C#CCn1nc(N2CCNCC2)c(-c2ccncc2)c1-c1ccc(Cl)cc1` (as salt: hydrochloride) (hydrate or solvate) [Example A-318, 1-[5-(4-chlorophenyl)-4-(4-pyridinyl)-1-(2-propynyl)-1H-pyrazol-3-yl]piperazine, trihydrochloride monohydrate], with 231 to 233 °C (dec.); and `Clc1ccccc1-c1[nH]ncc1-c1ccncc1` [Example A-209, 4-[3-(2-chlorophenyl)-1H-pyrazol-4-yl]pyridine], with 208.46 °C.
For `OCCn1nc(-c2ccc(F)cc2)c(-c2ccncc2)c1-c1cnc[nH]1` [Example A-198, 3-(4-fluorophenyl)-5-(4-imidazolyl)-4-(4-pyridinyl)-1H-pyrazole-1-ethanol], the melting point fell in the range of 227 to 228 °C.
The same measure, in the same setting: then `Nc1nccc(-c2cn[nH]c2-c2ccc(F)cc2)n1` [Example A-306, 4-[3-(4-fluorophenyl)-1H-pyrazol-4-yl]-2-pyrimidinamine], with 273 to 274 °C; and `CCNc1cc(-c2c[nH]nc2-c2cccc(Cl)c2)ccn1` [Example A-222, 4-[3-(3-chlorophenyl)-1H-pyrazol-4-yl]-N-ethyl-2-pyridinamine], with 186 to 187 °C; and `Cn1nc(-c2ccc(F)cc2)c(-c2ccncc2)c1C1CC1` [Example A-191], with 129 to 130 °C.
The compound `CNC(=O)c1cc(-c2cn[nH]c2-c2ccc(F)cc2)ccn1` [Example A-225, 4-[3-(4-fluorophenyl)-1H-pyrazol-4-yl]-N-methyl-2-pyridinecarboxamide] yielded a melting point of 88 to 89 °C.
On the same count and under the same terms, then `Cc1cc(-c2n[nH]cc2-c2ccncc2)ccc1Cl` [Example A-199, 4-[3-(4-chloro-3-methylphenyl)-1H-pyrazol-yl]pyridine], with 198.17 °C; and `CSc1ccc(-c2[nH]nc(N3CCN(C)CC3)c2-c2ccncc2)cc1` [Example A-423, 1-[5-(4-thiomethoxyphenyl)-4-(4-pyridinyl)-1H-pyrazol-3-yl]-4-methylpiperazine], with 275.6 to 281.9 °C; and `O=C(C(=C1SCS1)c1ccncc1)c1ccc(I)cc1` [Example A-401], with 257.6 to 257.7 °C.
On the same count and under the same terms, to `NC(=O)c1cc(-c2cn[nH]c2-c2ccc(F)cc2)ccn1` [Example A-223, 4-[3-(4-fluorophenyl)-1H-pyrazol-4-yl]-2-pyridinecarboxamide] belongs 230 to 231 °C.
With `Fc1ccc(-c2[nH]nc(CN3CCNCC3)c2-c2ccncc2)cc1` [A-314, Step 2, 1-[[5-(4-fluorophenyl)-4-(4-pyridinyl)-1H-pyrazol-3-yl]methyl]-4-piperazine], in the data set with TNF-α (Table 8, dose 1.0 mg/kg), the inhibition in vivo at 1 mg/kg was determined as 0%. Further, in the data set with TNF-α (Table 8, dose 5.0 mg/kg), the inhibition in vivo at 5 mg/kg was found to be 53%. This compound showed an inhibition in vivo at 20 mg/kg in the data set with TNF-α (Table 8, dose 20.0 mg/kg) of 85%. Moreover, the IC50 was 470 nM with human TNF (Table 8, human whole blood) and 32 nM in data set [1] (Table 8, 10% DMSO).
With `Clc1ccc(-c2n[nH]c(OC3CCNCC3)c2-c2ccncc2)cc1` [Example A-442], the inhibition in vivo at 1 mg/kg in the data set with TNF-α (Table 10, dose 1.0 mg/kg) was 51%. Further, the inhibition in vivo at 5 mg/kg in the data set on TNF-α (Table 10, dose 5.0 mg/kg) was determined as 56%. Besides, the inhibition in vivo at 20 mg/kg in the data set on TNF-α (Table 10, dose 20.0 mg/kg) turned out to be 92%. Also, the IC50 with human TNF (Table 10, human whole blood) was found to be 160 nM; in data set [1] (Table 10, 10% DMSO, @ 1.0 hour), 22 nM.
As to `C[C@H](O)CNc1cc(-c2c[nH]nc2-c2ccc(F)cc2)ccn1` [Example A-370, (2S)-1-[[4-[3-(4-fluorophenyl)-1H-pyrazol-4-yl]-2-pyridinyl]amino]-2-propanol], the inhibition in vivo at 5 mg/kg in the data set on TNF-α (Table 9, dose 5 mg/kg) was found to be 46%. This compound registered an inhibition in vivo at 20 mg/kg in the data set with TNF-α (Table 9, dose 20 mg/kg) of 90%. For the same compound, the IC50 is 1920 nM in the data set with human TNF (Table 9, human whole blood) and 160 nM in data set [1] (Table 9, 10% DMSO).
`OCC(Nc1cc(-c2c[nH]nc2-c2ccc(F)cc2)ccn1)c1ccccc1` (stereo not drawn) [Example A-376, (βR)-β-[[4-[3-(4-fluorophenyl)-1H-pyrazol-4-yl]-2-pyridinyl]amino]benzene ethanol] came in with an inhibition in vivo at 20 mg/kg in the data set on TNF-α (Table 9, dose 20 mg/kg) of 24%. Further, the IC50 in the data set with human TNF (Table 9, human whole blood) is 1000 nM; in data set [1] (Table 9, 10% DMSO), 32 nM.
`CN1CCN(Cc2n[nH]c(-c3ccc(F)cc3)c2-c2ccncc2)CC1` [A-313, Step 3, 1-[[5-(4-fluorophenyl)-4-(4-pyridinyl)-1H-pyrazol-3-yl]methyl]-4-methylpiperazine] registered an inhibition in vivo at 20 mg/kg in the data set with TNF-α (Table 8, dose 20.0 mg/kg) of 96%. In addition, the IC50 stood at 120 nM in the data set with human TNF (Table 8, human whole blood) and 370 nM in data set [1] (Table 8, 10% DMSO).
Regarding `CCN(CC)CCCNc1n[nH]c(-c2ccc(F)cc2)c1-c1ccncc1` [Example A-364, N,N-diethyl-N′-[5-(4-fluorophenyl)-4-(4-pyridinyl)-1H-pyrazol-3-yl]-1,3-propanediamine], the inhibition in vivo at 20 mg/kg in the data set with TNF-α (Table 9, dose 20 mg/kg) came to 79%. Besides, the IC50 in the data set on human TNF (Table 9, human whole blood) turned out to be 255 nM; in data set [1] (Table 9, 10% DMSO), 490 nM.
With `CC(C)C(CO)Nc1cc(-c2c[nH]nc2-c2ccc(F)cc2)ccn1` (stereo not drawn) [Example A-355, 2-[[4-[3-(4-fluorophenyl)-1H-pyrazol-4-yl]-2-pyridinyl]amino]-3-methyl-1-butanol], the inhibition in vivo at 26 mg/kg with TNF-α (Table 9, dose 26 mg/kg) is 0%. The IC50 in the data set on human TNF (Table 9, human whole blood) came out at 95 nM; in data set [1] (Table 9, 10% DMSO) it was 50 nM.
For `OC[C@@H](Nc1cc(-c2c[nH]nc2-c2ccc(F)cc2)ccn1)c1ccccc1` [Example A-362, (βS)-β-[[4-[3-(4-fluorophenyl)-1H-pyrazol-4-yl]-2-pyridinyl]amino]benzene ethanol], the inhibition in vivo at 20 mg/kg in the data set with TNF-α (Table 9, dose 20 mg/kg) is 0%. The IC50 with human TNF (Table 9, human whole blood) stood at 5500 nM; in data set [1] (Table 9, 10% DMSO) it was 690 nM.
`CCN(CC)CCCC(C)Nc1nccc(-c2c[nH]nc2-c2ccc(F)cc2)n1` (stereo not drawn) [Example A-366, N1,N1-diethyl-N4-[4-[3-(4-fluorophenyl)-1H-pyrazol-4-yl]-2-pyrimidinyl]-1,4-pentanediamine]: in the data set on TNF-α (Table 9, dose 1 mg/kg), the inhibition in vivo at 1 mg/kg is 6%. Further, the inhibition in vivo at 5 mg/kg in the data set on TNF-α (Table 9, dose 5 mg/kg) is 45%. Also, the inhibition in vivo at 20 mg/kg in the data set on TNF-α (Table 9, dose 20 mg/kg) came out at 92%. Further, the IC50 with human TNF (Table 9, human whole blood) was 290 nM; in data set [1] (Table 9, 10% DMSO) it was 41 nM and 60 nM and 40 nM.
Regarding `CN1CCC(Nc2n[nH]c(-c3ccc(Cl)cc3)c2-c2ccncc2)CC1` [Example A-334, N-[5-(4-chlorophenyl)-4-(4-pyridinyl)-1H-pyrazol-3-yl]-1-methyl-4-piperidinamine], the inhibition in vivo at 1 mg/kg in the data set with TNF-α (Table 8, dose 1.0 mg/kg) turned out to be 36%. Also, in the data set on TNF-α (Table 8, dose 5.0 mg/kg), the inhibition in vivo at 5 mg/kg turned out to be 57%. The compound also gave an inhibition in vivo at 20 mg/kg in the data set on TNF-α (Table 8, dose 20.0 mg/kg) of 95%. For the same compound, the IC50 in the data set with human TNF (Table 8, human whole blood) was determined as 220 nM; in data set [1] (Table 8, 10% DMSO), 70 nM.
On to `CCN(CC)CCNc1cc(-c2c[nH]nc2-c2ccc(F)cc2)ccn1` [Example A-374, N,N-diethyl-N′-[4-[3-(4-fluorophenyl)-1H-pyrazol-4-yl]-2-pyridinyl]-1,2-ethanediamine], for which the inhibition in vivo at 1 mg/kg in the data set on TNF-α (Table 9, dose 1 mg/kg) is 3%. The inhibition in vivo at 5 mg/kg in the data set with TNF-α (Table 9, dose 5 mg/kg) came to 0%. The inhibition in vivo at 20 mg/kg with TNF-α (Table 9, dose 20 mg/kg) was 88%. The IC50 is 310 nM in the data set with human TNF (Table 9, human whole blood) and 380 nM in data set [1] (Table 9, 10% DMSO).
`OC[C@H](Cc1ccccc1)Nc1cc(-c2c[nH]nc2-c2ccc(F)cc2)ccn1` [Example A-363, (βS)-β-[[4-[3-(4-fluorophenyl)-1H-pyrazol-4-yl]-2-pyridinyl]amino]benzene propanol]: in the data set with TNF-α (Table 9, dose 20 mg/kg), the inhibition in vivo at 20 mg/kg stood at 6%. The IC50 in the data set on human TNF (Table 9, human whole blood) was 25000 nM; in data set [1] (Table 9, 10% DMSO) it was 1500 nM.
The matching figures for `CCN(CC)CC(Nc1cc(-c2c[nH]nc2-c2ccc(F)cc2)ccn1)c1ccccc1` (stereo not drawn) [Example A-353, N2,N2-diethyl-N1-[4-[3-(4-fluorophenyl)-1H-pyrazol-4-yl]-2-pyridinyl]-1-phenyl-1,2-ethanediamine]: 49%, 5300 nM and 37 nM.
The matching figures for `CCN1CCCCC1CCNc1cc(-c2c[nH]nc2-c2ccc(F)cc2)ccn1` (stereo not drawn) [Example A-358, N-[2-(1-ethyl-2-piperidinyl)ethyl]-4-[3-(4-fluorophenyl)-1H-pyrazol-4-yl]-2-pyridinamine]: 71%, 4000 nM and 230 nM.

For orientation: melting point means the temperature of the solid-liquid transition.
